Assay results published in US12544395B2, “Combination compositions comprising a beta-lactamase inhibitor and uses thereof” (priority 2018, dated 2026).
In brackets after ≈: the same amount, converted by molar mass. Where two headings read alike, the source gives them in different places.

Legend:
Assay type in all cases: cell-based
[1] = system: K. pneumoniae KP 8; assay: Broth microdilution MIC (strain enzymes: TEM-10, TEM-1, CTX-M15); settings: Klebsiella pneumoniae, KP8; alone; read-out: MIC of cefdinir (CDR)
[2] = system: E. coli 3174; assay: Broth microdilution MIC (strain enzymes: TEM-1, CTXM-15); settings: Escherichia coli, 3174; alone; read-out: MIC of cefdinir (CDR)
[3] = system: K. oxytoca 176877; assay: Broth microdilution MIC (strain enzymes: SHV-105); settings: Klebsiella oxytoca, 176877; alone; read-out: MIC of cefdinir (CDR)
[4] = system: E. coli ESBL 4; assay: Broth microdilution MIC (strain enzymes: CTX-M15, TEM-1); settings: Escherichia coli, ESBL4; alone; read-out: MIC of cefdinir (CDR)
[5] = system: E. coli 3327; assay: Broth microdilution MIC (strain enzymes: TEM-1, SHV-12); settings: Escherichia coli, 3327; alone; read-out: MIC of cefdinir (CDR)
[6] = system: K. pneumoniae 329633; assay: Broth microdilution MIC (strain enzymes: SHV-5, TEM-1); settings: Klebsiella pneumoniae, 329633; alone; read-out: MIC of cefdinir (CDR)
[7] = system: K. pneumoniae ESBL 8 #1; assay: Broth microdilution MIC (strain enzymes: TEM-1, SHV-12); settings: Klebsiella pneumoniae; alone; read-out: MIC of cefdinir (CDR)
[8] = system: K. pneumoniae KI (KCl); assay: Broth microdilution MIC (strain enzymes: TEM-10); settings: Klebsiella pneumoniae; alone; read-out: MIC of cefdinir (CDR)
[9] = system: K. pneumoniae 319478; assay: Broth microdilution MIC (strain enzymes: SHV-12, CTX-M3 and TEM-1); settings: Klebsiella pneumoniae, 319478; alone; read-out: MIC of cefdinir (CDR)
[10] = system: E. coli SI-AIRT-4; assay: Broth microdilution MIC (strain enzymes: TEM-1); settings: Escherichia coli, SIAIRT4; alone; read-out: MIC of cefdinir (CDR)
[11] = system: K. pneumoniae ESBL 7 #1; assay: Broth microdilution MIC (strain enzymes: SHV-12, TEM-1); settings: Klebsiella pneumoniae; alone; read-out: MIC of cefdinir (CDR)
[12] = system: K. oxytoca 169219; assay: Broth microdilution MIC (strain enzymes: TEM-1, CTXM-15); settings: Klebsiella oxytoca, 169219; alone; read-out: MIC of cefdinir (CDR)
[13] = system: K. pneumoniae BAA 1705; assay: Broth microdilution MIC (strain KPC-producing); settings: Klebsiella pneumoniae, BAA1705; alone; read-out: MIC of cefdinir (CDR)
[14] = system: K. pneumoniae KP 4; assay: Broth microdilution MIC (strain enzymes: SHV-2a, SHV-5, TEM-1); settings: Klebsiella pneumoniae, KP4; alone; read-out: MIC of cefdinir (CDR)
[15] = system: K. pneumoniae 115468; assay: Broth microdilution MIC (strain enzymes: TEM-1); settings: Klebsiella pneumoniae, 115468; alone; read-out: MIC of cefdinir (CDR)
[16] = system: E. coli ESBL 2; assay: Broth microdilution MIC (strain enzymes: TEM-1); settings: Escherichia coli, ESBL2; alone; read-out: MIC of cefdinir (CDR)
[17] = system: E. coli SI-PBLII; assay: Broth microdilution MIC (strain enzymes: CTX-M2, TEM-1); settings: Escherichia coli; alone; read-out: MIC of cefdinir (CDR)
[18] = system: K. pneumoniae 153239; assay: Broth microdilution MIC (strain enzymes: SHV-11, TEM-1); settings: Klebsiella pneumoniae, 153239; alone; read-out: MIC of cefdinir (CDR)
[19] = system: E. coli 1924; assay: Broth microdilution MIC (strain enzymes: TEM-12); settings: Escherichia coli, 1924; alone; read-out: MIC of cefdinir (CDR)
[20] = system: K. pneumoniae 3151; assay: Broth microdilution MIC (strain enzymes: SHV-12, TEM-1); settings: Klebsiella pneumoniae, 3151; alone; read-out: MIC of cefdinir (CDR)
[21] = system: K. pneumoniae 11/23 LF#2; assay: microbe, parasite or virus in culture; settings: Klebsiella pneumoniae, read-out: MIC of cefdinir (CDR)
[22] = system: K. pneumoniae ESBL 7 #2; assay: Broth microdilution MIC (strain enzymes: SHV-12, CTX-M15, TEM-1); settings: Klebsiella pneumoniae; alone; read-out: MIC of cefdinir (CDR)
[23] = system: E. coli SI-M004; assay: Broth microdilution MIC (strain enzymes: SHV-2, GES-12); settings: Escherichia coli, SIM004; alone; read-out: MIC of cefdinir (CDR)
[24] = system: E. coli ESBL 5; assay: Broth microdilution MIC (strain enzymes: CTX-M15, TEM-1); settings: Escherichia coli, ESBL5; alone; read-out: MIC of cefdinir (CDR)
[25] = system: E. coli 25922; assay: Broth microdilution MIC (strain enzymes: None detected); settings: Escherichia coli, 25922; alone; read-out: MIC of cefdinir (CDR)
[26] = system: K. pneumoniae ESBL 8 #2; assay: Broth microdilution MIC (strain enzymes: SHV-12, TEM-1); settings: Klebsiella pneumoniae; alone; read-out: MIC of cefdinir (CDR)
[27] = system: E. coli Si-FDL-GES; assay: microbe, parasite or virus in culture; settings: Escherichia coli, read-out: MIC of cefdinir (CDR)
[28] = system: E. coli SI-V502; assay: Broth microdilution MIC (strain enzymes: TEM-29, CTX-M15); settings: Escherichia coli, SIV502; alone; read-out: MIC of cefdinir (CDR)
[29] = system: E. coli SI-LP377; assay: microbe, parasite or virus in culture; settings: Escherichia coli, SILP377, read-out: MIC of cefdinir (CDR)
[30] = system: E. coli 2806; assay: Broth microdilution MIC (strain enzymes: SHV-12, TEM-1); settings: Escherichia coli, 2806; alone; read-out: MIC of cefdinir (CDR)
[31] = system: K. pneumoniae 170375; assay: Broth microdilution MIC (strain enzymes: SHV-12, CTX-M15 and TEM-1); settings: Klebsiella pneumoniae, 170375; alone; read-out: MIC of cefdinir (CDR)
[32] = system: K. pneumoniae 304487; assay: Broth microdilution MIC (strain enzymes: SHV-12,TEM-1); settings: Klebsiella pneumoniae, 304487; alone; read-out: MIC of cefdinir (CDR)
[33] = system: K. pneumoniae SI-KP NO30; assay: Broth microdilution MIC (strain enzymes: TEM-26b, SHV-60, SHV-26); settings: Klebsiella pneumoniae, SIKPNO30; alone; read-out: MIC of cefdinir (CDR)
[34] = system: E. coli SI-NO36; assay: Broth microdilution MIC (strain enzymes: SHV-11, TEM-1); settings: Escherichia coli, SINO36; alone; read-out: MIC of cefdinir (CDR)
[35] = system: E. coli BAS 1; assay: Broth microdilution MIC (strain enzymes: none detected); settings: Escherichia coli, BAS1; alone; read-out: MIC of cefdinir (CDR)
[36] = system: K. oxytoca 496 #2; assay: Broth microdilution MIC (strain enzymes: SHV-105, TEM-1); settings: Klebsiella oxytoca; alone; read-out: MIC of cefdinir (CDR)
[37] = system: K. pneumoniae ESBL 10; assay: Broth microdilution MIC (strain enzymes: SHV-12, TEM-1); settings: Klebsiella pneumoniae, ESBL10; alone; read-out: MIC of cefdinir (CDR)
[38] = system: E. coli 2150; assay: Broth microdilution MIC (strain enzymes: SHV-3, TEM-1); settings: Escherichia coli, 2150; alone; read-out: MIC of cefdinir (CDR)
[39] = system: K. pneumoniae KPN 508; assay: Broth microdilution MIC (strain enzymes: SHV-7, TEM-1); settings: Klebsiella pneumoniae, KPN508; alone; read-out: MIC of cefdinir (CDR)
[40] = system: panel of ESBL-producing Enterobacteriaceae (40 strains); assay: Broth microdilution MIC50/MIC90 summary over the panel
[41] = system: K. pneumoniae KP 3; assay: Broth microdilution MIC (strain enzymes: SHV-1, TEM-1); settings: Klebsiella pneumoniae, KP3; alone; read-out: MIC of cefdinir (CDR)

Work on `C=CC1=C(C(=O)O)N2C(=O)[C@@H](NC(=O)/C(=N\O)c3csc(N)n3)[C@H]2SC1` [Cefdinir, cefdinir, reference compound] yielded an MIC [1] of 0.5 µg/mL, an MIC [2] of 1 µg/mL and an MIC [3] of 8 µg/mL. The MIC [4] was over 32 µg/mL, the MIC [5] was 16 µg/mL and the MIC [6] was 16 µg/mL. It also gave an MIC [7] of 16 µg/mL, an MIC [8] of 1 µg/mL and an MIC [9] of over 32 µg/mL. For the same compound, the MIC [10] was 0.25 µg/mL, the MIC [11] was 32 µg/mL and the MIC [12] was over 32 µg/mL. It also gave an MIC [13] of over 32 µg/mL, an MIC [14] of 8 µg/mL and an MIC [15] of 8 µg/mL. It also gave an MIC [16] of over 32 µg/mL, an MIC [17] of 2 µg/mL and an MIC [18] of 2 µg/mL. For the same compound, the MIC [19] was 2 µg/mL, the MIC [20] was over 32 µg/mL and the MIC [21] was 2 µg/mL. For the same compound, the MIC [22] was over 32 µg/mL, the MIC [23] was 32 µg/mL and the MIC [24] was over 32 µg/mL. For the same compound, the MIC [25] was 0.5 µg/mL, the MIC [26] was 16 µg/mL and the MIC [27] was over 32 µg/mL. The MIC [28] was 2 µg/mL, the MIC [29] was over 32 µg/mL and the MIC [30] was 4 µg/mL. It also gave an MIC [31] of over 32 µg/mL, an MIC [32] of 8 µg/mL and an MIC [33] of 0.5 µg/mL. It also gave an MIC [34] of 4 µg/mL, an MIC [35] of over 32 µg/mL and an MIC [36] of 16 µg/mL. For the same compound, the MIC [37] was 16 µg/mL, the MIC [38] was over 32 µg/mL and the MIC [39] was 32 µg/mL. It also gave an MIC50 ([40]; read-out: Cefdinir MIC50) of 16 µg/mL (≈ 40.5 µM), an MIC90 ([40]; read-out: Cefdinir MIC90) of over 32 µg/mL and an MIC [41] of 4 µg/mL.

Compound `COCC1=C(C(=O)O)N2C(=O)[C@@H](NC(=O)/C(=N\OC)c3csc(N)n3)[C@H]2SC1` [Cefpodoxime, cefpodoxime, reference compound] has an MIC50 ([40]; read-out: Cefpodoxime MIC50) of over 32 µg/mL and an MIC90 ([40]; read-out: Cefpodoxime MIC90) of over 32 µg/mL.
